Data as given in article PMC5218480 (PLoS ONE, 2017).

Test system: MV-4-11 cells
Test: Gene expression microarray analysis (Affymetrix PrimeView) and GSEA
Assay type: cell-based, human
Parameters: RFU PODN (11730768_x_at) / Fold change /veh PODN (11730768_x_at) / RFU LINC00158 (11744669_a_at) / Fold change /veh LINC00158 (11744669_a_at) / RFU DUSP10 (11751237_a_at) / Fold change /veh DUSP10 (11751237_a_at) / RFU ID3 (11757404_x_at) / Fold change /veh ID3 (11757404_x_at) / RFU PLEKHG5 (11737974_s_at) / Fold change /veh PLEKHG5 (11737974_s_at) / RFU LRRC4B (11730491_at) / Fold change /veh LRRC4B (11730491_at) / RFU GIMAP4 (11747438_a_at) / Fold change /veh GIMAP4 (11747438_a_at) / RFU KRT8 (11758183_x_at) / Fold change /veh KRT8 (11758183_x_at) / RFU CNN1 (11734310_a_at) / Fold change /veh CNN1 (11734310_a_at) / RFU VPS37D (11726825_at) / Fold change /veh VPS37D (11726825_at) / RFU C10orf10 (11716522_x_at) / Fold change /veh C10orf10 (11716522_x_at) / RFU KIR2DL2 /// KIR2DL4 /// KIR2DL5A /// KIR2DL5B /// KIR2DS1 /// KIR2DS2 /// KIR2DS3 /// KIR2DS4 /// KIR3DL3 /// KIR3DL3 /// KIR3DS1 (11738374_at) / Fold change /veh KIR2DL2 /// KIR2DL4 /// KIR2DL5A /// KIR2DL5B /// KIR2DS1 /// KIR2DS2 /// KIR2DS3 /// KIR2DS4 /// KIR3DL3 /// KIR3DL3 /// KIR3DS1 (11738374_at) / RFU C1QL1 (11718748_at) / Fold change /veh C1QL1 (11718748_at) / RFU TMPRSS4 (11747572_a_at) / Fold change /veh TMPRSS4 (11747572_a_at) / RFU HAMP (11756126_x_at) / Fold change /veh HAMP (11756126_x_at) / RFU RNFT2 (11725882_a_at) / Fold change /veh RNFT2 (11725882_a_at) / RFU NR4A2 (11747474_a_at) / Fold change /veh NR4A2 (11747474_a_at) / RFU ABCC12 (11746883_a_at) / Fold change /veh ABCC12 (11746883_a_at) / RFU TMEM136 (11760407_x_at) / Fold change /veh TMEM136 (11760407_x_at) / RFU CLDN22 /// WWC2 (11732394_at) / Fold change /veh CLDN22 /// WWC2 (11732394_at) / RFU HLA-DPB1 (11760878_x_at) / Fold change /veh HLA-DPB1 (11760878_x_at) / RFU SPINT1 (11716480_a_at) / Fold change /veh SPINT1 (11716480_a_at) / RFU GAP43 (11754022_s_at) / Fold change /veh GAP43 (11754022_s_at) / RFU A4GNT (11735810_at) / Fold change /veh A4GNT (11735810_at) / RFU PRB3 (11715151_x_at) / Fold change /veh PRB3 (11715151_x_at) / RFU TUBB4B (11761932_at) / Fold change /veh TUBB4B (11761932_at) / RFU CAPN14 (11732068_a_at) / Fold change /veh CAPN14 (11732068_a_at) / RFU TMCC2 (11721928_a_at) / Fold change /veh TMCC2 (11721928_a_at) / RFU IRGQ (11745062_a_at) / Fold change /veh IRGQ (11745062_a_at) / RFU FAM174B (11720279_a_at) / Fold change /veh FAM174B (11720279_a_at) / RFU TMPRSS4 (11748680_a_at) / Fold change /veh TMPRSS4 (11748680_a_at) / RFU FAM212B (11763350_a_at) / Fold change /veh FAM212B (11763350_a_at) / RFU PLEKHG5 (11743358_a_at) / Fold change /veh PLEKHG5 (11743358_a_at) / RFU ZSCAN30 (11745921_a_at) / Fold change /veh ZSCAN30 (11745921_a_at) / RFU CMKLR1 (11741424_a_at) / Fold change /veh CMKLR1 (11741424_a_at) / RFU LOC101060620 /// MAPK8IP1 (11723275_at) / Fold change /veh LOC101060620 /// MAPK8IP1 (11723275_at) / RFU SPTSSB (11747773_x_at) / Fold change /veh SPTSSB (11747773_x_at) / RFU PRSS12 (11739890_at) / Fold change /veh PRSS12 (11739890_at) / RFU BIN1 (11741810_x_at) / Fold change /veh BIN1 (11741810_x_at) / RFU WNT11 (11732464_a_at) / Fold change /veh WNT11 (11732464_a_at) / RFU C10orf10 (11716521_a_at) / Fold change /veh C10orf10 (11716521_a_at) / RFU C5orf56 (11738089_at) / Fold change /veh C5orf56 (11738089_at) / RFU CYB561 (11721691_x_at) / Fold change /veh CYB561 (11721691_x_at) / RFU ANKRD19P (11752326_a_at) / Fold change /veh ANKRD19P (11752326_a_at) / RFU OR2T12 /// OR2T33 /// OR2T8 (11738714_s_at) / Fold change /veh OR2T12 /// OR2T33 /// OR2T8 (11738714_s_at) / RFU VCAN (11748164_a_at) / Fold change /veh VCAN (11748164_a_at) / RFU JSRP1 (11732532_at) / Fold change /veh JSRP1 (11732532_at) / RFU KRTAP10-11 (11738290_x_at) / Fold change /veh KRTAP10-11 (11738290_x_at) / RFU MYO3A (11730013_a_at) / Fold change /veh MYO3A (11730013_a_at) / RFU EBF3 (11725865_a_at) / Fold change /veh EBF3 (11725865_a_at) / RFU CAMK2N1 (11719241_x_at) / Fold change /veh CAMK2N1 (11719241_x_at) / RFU C5orf56 (11738088_a_at) / Fold change /veh C5orf56 (11738088_a_at) / RFU OLFML3 (11715873_a_at) / Fold change /veh OLFML3 (11715873_a_at) / RFU LOC100653217 /// NTM (11731650_a_at) / Fold change /veh LOC100653217 /// NTM (11731650_a_at) / RFU MAPK11 (11762145_a_at) / Fold change /veh MAPK11 (11762145_a_at) / RFU FIZ1 (11724087_x_at) / Fold change /veh FIZ1 (11724087_x_at) / RFU OASL (11726364_x_at) / Fold change /veh OASL (11726364_x_at) / RFU SOX15 (11748057_x_at) / Fold change /veh SOX15 (11748057_x_at) / RFU CD79A (11719716_a_at) / Fold change /veh CD79A (11719716_a_at) / RFU HIST1H1D (11736915_at) / Fold change /veh HIST1H1D (11736915_at) / RFU CASKIN2 (11723855_a_at) / Fold change /veh CASKIN2 (11723855_a_at) / RFU LOC730098 (11760151_x_at) / Fold change /veh LOC730098 (11760151_x_at) / RFU OR4N2 (11742367_at) / Fold change /veh OR4N2 (11742367_at) / RFU PRRT2 (11749266_a_at) / Fold change /veh PRRT2 (11749266_a_at) / RFU SNX32 (11753110_a_at) / Fold change /veh SNX32 (11753110_a_at) / RFU CDHR5 (11726645_a_at) / Fold change /veh CDHR5 (11726645_a_at) / RFU RCAN1 (11760418_a_at) / Fold change /veh RCAN1 (11760418_a_at) / RFU FAM167A (11723789_a_at) / Fold change /veh FAM167A (11723789_a_at) / RFU FAM26E (11764081_at) / Fold change /veh FAM26E (11764081_at) / RFU ISYNA1 (11749810_s_at) / Fold change /veh ISYNA1 (11749810_s_at) / RFU ACY1 (11761880_at) / Fold change /veh ACY1 (11761880_at) / RFU 11764098_at / Fold change /veh 11764098_at / RFU SAMD14 (11745864_x_at) / Fold change /veh SAMD14 (11745864_x_at) / RFU NPB (11741838_a_at) / Fold change /veh NPB (11741838_a_at) / RFU TMPRSS6 (11731388_a_at) / Fold change /veh TMPRSS6 (11731388_a_at) / RFU KRTAP10-2 (11738614_at) / Fold change /veh KRTAP10-2 (11738614_at) / RFU ARHGAP8 /// PRR5-ARHGAP8 (11727945_x_at) / Fold change /veh ARHGAP8 /// PRR5-ARHGAP8 (11727945_x_at) / RFU KRTAP5-7 /// NADSYN1 (11734609_at) / Fold change /veh KRTAP5-7 /// NADSYN1 (11734609_at) / RFU RASL12 (11751679_a_at) / Fold change /veh RASL12 (11751679_a_at) / RFU CDKN2B (11736163_a_at) / Fold change /veh CDKN2B (11736163_a_at) / RFU PRF1 (11729649_at) / Fold change /veh PRF1 (11729649_at) / RFU, ZNF638 /// ZNF638-IT1 / Fold change vs veh, ZNF638 /// ZNF638-IT1 / RFU, PANK3 / Fold change vs veh, PANK3 / RFU, SH3YL1 / Fold change vs veh, SH3YL1 / RFU, ZEB2 / Fold change vs veh, ZEB2 / RFU, NRIP1 / Fold change vs veh, NRIP1 / RFU, PTTG1IP / Fold change vs veh, PTTG1IP / RFU, CAPN2 / Fold change vs veh, CAPN2 / RFU, MED14 / Fold change vs veh, MED14 / RFU, SNORA58 / Fold change vs veh, SNORA58 / RFU, C1orf63 / Fold change vs veh, C1orf63 / RFU, LRRFIP1 / Fold change vs veh, LRRFIP1 / RFU, NDUFAF7 / Fold change vs veh, NDUFAF7 / RFU, SLC12A2 / Fold change vs veh, SLC12A2 / RFU, IBTK / Fold change vs veh, IBTK / RFU, ESF1 / Fold change vs veh, ESF1 / Fold change vs veh, TMEM50B / RFU, TAOK1 / Fold change vs veh, TAOK1 / RFU, ACBD3 / Fold change vs veh, ACBD3 / RFU, TMA16 / Fold change vs veh, TMA16 / RFU, RWDD3 / Fold change vs veh, RWDD3 / RFU, BCAT1 / Fold change vs veh, BCAT1 / RFU, EDEM3 / Fold change vs veh, EDEM3 / RFU, TMEM33 / Fold change vs veh, TMEM33 / RFU, WDR75 / Fold change vs veh, WDR75 / RFU, AHCTF1 / Fold change vs veh, AHCTF1 / RFU, TFRC / Fold change vs veh, TFRC / RFU, ZDHHC17 / Fold change vs veh, ZDHHC17 / RFU, NOM1 / Fold change vs veh, NOM1 / RFU, ARL8B / Fold change vs veh, ARL8B / RFU, ZBTB11 / Fold change vs veh, ZBTB11 / RFU, TAMM41 / Fold change vs veh, TAMM41 / RFU, KIAA1704 /// LOC100996395 / Fold change vs veh, KIAA1704 /// LOC100996395 / RFU, ING1 / Fold change vs veh, ING1 / RFU, TRMT61B / Fold change vs veh, TRMT61B / RFU, FUBP3 / Fold change vs veh, FUBP3 / RFU, TP53 / Fold change vs veh, TP53 / RFU, TNKS2 / Fold change vs veh, TNKS2 / RFU, ZFP14 / Fold change vs veh, ZFP14 / RFU, ACTR2 / Fold change vs veh, ACTR2 / RFU, PPP3R1 / Fold change vs veh, PPP3R1 / RFU, PIK3R1 / Fold change vs veh, PIK3R1 / RFU, HNRNPA1 / Fold change vs veh, HNRNPA1 / RFU, RNF170 / Fold change vs veh, RNF170 / RFU, ZNF28 / Fold change vs veh, ZNF28 / RFU, RNGTT / Fold change vs veh, RNGTT / RFU, OGT / Fold change vs veh, OGT / RFU, BRD1 / Fold change vs veh, BRD1 / RFU, MARS / Fold change vs veh, MARS / RFU, ZNF655 / Fold change vs veh, ZNF655 / RFU, FAHD1 / Fold change vs veh, FAHD1 / RFU, BDP1 / Fold change vs veh, BDP1 / RFU, LRRCC1 / Fold change vs veh, LRRCC1 / RFU, ARID1A / Fold change vs veh, ARID1A / RFU, ZNF146 / Fold change vs veh, ZNF146 / RFU, ZNF330 / Fold change vs veh, ZNF330 / RFU, GPN3 / Fold change vs veh, GPN3 / RFU, C9orf123 / Fold change vs veh, C9orf123 / RFU, N4BP2L2 / Fold change vs veh, N4BP2L2 / RFU, ARFIP1 / Fold change vs veh, ARFIP1 / RFU, FAM179B / Fold change vs veh, FAM179B / RFU, BCL10 / Fold change vs veh, BCL10 / RFU, UHRF1BP1L / Fold change vs veh, UHRF1BP1L / RFU, BET1 / Fold change vs veh, BET1 / RFU, CNOT2 / Fold change vs veh, CNOT2 / RFU, ZNF268 / Fold change vs veh, ZNF268 / Fold change vs veh, ZNF507 / RFU, DGCR2 / Fold change vs veh, DGCR2 / RFU, WDSUB1 / Fold change vs veh, WDSUB1 / Fold change vs veh, HSP90B1 /// MIR3652 / RFU, ADSS / Fold change vs veh, ADSS / RFU, GK / Fold change vs veh, GK / RFU, ZNF148 / Fold change vs veh, ZNF148 / RFU, TAF9 / Fold change vs veh, TAF9 / RFU, SLC1A5 / Fold change vs veh, SLC1A5 / RFU, SLMO2 / Fold change vs veh, SLMO2 / RFU, ABCC4 / Fold change vs veh, ABCC4 / RFU, LOC101060439 /// RAP1B / Fold change vs veh, LOC101060439 /// RAP1B / RFU, RFX7 / Fold change vs veh, RFX7 / RFU, GTPBP10 / Fold change vs veh, GTPBP10 / RFU, CNEP1R1 / Fold change vs veh, CNEP1R1 / RFU, BIVM-ERCC5 /// ERCC5 / Fold change vs veh, BIVM-ERCC5 /// ERCC5 / RFU, ILF3 / Fold change vs veh, ILF3 / RFU 11762660_at / Fold change /veh 11762660_at / RFU VCAN (11757783_s_at) / Fold change /veh VCAN (11757783_s_at) / RFU DDX43 (11728927_at) / Fold change /veh DDX43 (11728927_at) / RFU KRT8 (11758188_x_at) / Fold change /veh KRT8 (11758188_x_at) / RFU NKD1 (11759106_at) / Fold change /veh NKD1 (11759106_at) / RFU SRD5A1 (11742802_a_at) / Fold change /veh SRD5A1 (11742802_a_at) / RFU TPSAB1 /// TPSB2 (11721975_s_at) / Fold change /veh TPSAB1 /// TPSB2 (11721975_s_at) / RFU GSTM3 (11746129_a_at) / Fold change /veh GSTM3 (11746129_a_at) / RFU IL23R (11737362_x_at) / Fold change /veh IL23R (11737362_x_at) / RFU TMEM51 (11727254_a_at) / Fold change /veh TMEM51 (11727254_a_at) / RFU PIWIL2 (11732686_x_at) / Fold change /veh PIWIL2 (11732686_x_at) / RFU ORM1 (11744905_x_at) / Fold change /veh ORM1 (11744905_x_at) / RFU CCDC152 (11743942_at) / Fold change /veh CCDC152 (11743942_at) / RFU ECM1 (11717891_a_at) / Fold change /veh ECM1 (11717891_a_at) / RFU IL23R (11748794_a_at) / Fold change /veh IL23R (11748794_a_at) / RFU TNFAIP8L3 (11732012_x_at) / Fold change /veh TNFAIP8L3 (11732012_x_at) / RFU MBOAT4 (11741988_at) / Fold change /veh MBOAT4 (11741988_at) / RFU 11764193_at / Fold change /veh 11764193_at / RFU TMEM53 (11763286_at) / Fold change /veh TMEM53 (11763286_at) / RFU MAGEB2 (11727129_at) / Fold change /veh MAGEB2 (11727129_at) / RFU TMEM200A (11744735_a_at) / Fold change /veh TMEM200A (11744735_a_at) / RFU CCDC152 (11751479_a_at) / Fold change /veh CCDC152 (11751479_a_at) / RFU FAM211A (11726209_a_at) / Fold change /veh FAM211A (11726209_a_at) / RFU RGS16 (11746705_a_at) / Fold change /veh RGS16 (11746705_a_at) / RFU VCAN (11755009_s_at) / Fold change /veh VCAN (11755009_s_at) / RFU RHOB (11743442_s_at) / Fold change /veh RHOB (11743442_s_at) / RFU RGS16 (11720943_a_at) / Fold change /veh RGS16 (11720943_a_at) / RFU RGS16 (11720944_at) / Fold change /veh RGS16 (11720944_at) / RFU, VPS4B / Fold change vs veh, VPS4B / RFU, CREB1 / Fold change vs veh, CREB1 / RFU, DNAJC13 / Fold change vs veh, DNAJC13 / RFU, GNAQ / Fold change vs veh, GNAQ / RFU, CDK5R1 / Fold change vs veh, CDK5R1 / RFU, ZRANB3 / Fold change vs veh, ZRANB3 / RFU, CUL4A / Fold change vs veh, CUL4A / RFU, CCNY / Fold change vs veh, CCNY / RFU, UFL1 / Fold change vs veh, UFL1 / RFU, COG3 / Fold change vs veh, COG3 / RFU, DIAPH2 / Fold change vs veh, DIAPH2 / RFU, SKA2 / Fold change vs veh, SKA2 / RFU, AFF3 / Fold change vs veh, AFF3 / RFU, LMF1 / Fold change vs veh, LMF1 / RFU, IPO11 / Fold change vs veh, IPO11 / RFU, DFFB / Fold change vs veh, DFFB / RFU, FOXP1 / Fold change vs veh, FOXP1 / RFU, CARD8 / Fold change vs veh, CARD8 / RFU, STRN3 / Fold change vs veh, STRN3 / RFU, ADK / Fold change vs veh, ADK / RFU, RASSF2 / Fold change vs veh, RASSF2 / RFU, WIPF1 / Fold change vs veh, WIPF1 / RFU, LARP1B / Fold change vs veh, LARP1B / RFU, RASA1 / Fold change vs veh, RASA1 / RFU, RB1 / Fold change vs veh, RB1 / RFU, PPFIA1 / Fold change vs veh, PPFIA1 / RFU, MAT2A / Fold change vs veh, MAT2A / RFU, CCT5 / Fold change vs veh, CCT5 / RFU, WDR92 / Fold change vs veh, WDR92 / RFU, CUX1 / Fold change vs veh, CUX1 / RFU, TTC7A / Fold change vs veh, TTC7A / RFU, TMEM135 / Fold change vs veh, TMEM135 / RFU, DEPTOR / Fold change vs veh, DEPTOR / RFU, CPM / Fold change vs veh, CPM / RFU, DNAJB6 / Fold change vs veh, DNAJB6 / RFU, CACNA2D3 / Fold change vs veh, CACNA2D3 / RFU, DTX4 / Fold change vs veh, DTX4 / RFU, TFCP2 / Fold change vs veh, TFCP2 / RFU, GMCL1 /// GMCL1P1 / Fold change vs veh, GMCL1 /// GMCL1P1 / RFU, AEBP2 / Fold change vs veh, AEBP2 / RFU, SNHG1 /// SNORD22 /// SNORD25 /// SNORD26 /// SNORD27 /// SNORD28 /// SNORD29 /// SNORD31 / Fold change vs veh, SNHG1 /// SNORD22 /// SNORD25 /// SNORD26 /// SNORD27 /// SNORD28 /// SNORD29 /// SNORD31 / Fold change (Aza/veh), C12orf56 (ProbeSet 11735607_a_at) / Fold change (ACY-1035/veh), C12orf56 (ProbeSet 11735607_a_at) / Fold change (Aza/veh), FGFR1OP (ProbeSet 11751329_s_at) / Fold change (ACY-1035/veh), FGFR1OP (ProbeSet 11751329_s_at) / Fold change (Aza/veh), VPS36 (ProbeSet 11739960_a_at) / Fold change (ACY-1035/veh), VPS36 (ProbeSet 11739960_a_at) / RFU SYPL1 (11715823_x_at) / Fold change /veh SYPL1 (11715823_x_at) / RFU IGFBP7 (11715501_s_at) / Fold change /veh IGFBP7 (11715501_s_at) / RFU REEP3 (11722064_at) / Fold change /veh REEP3 (11722064_at) / RFU IGLL1 (11728026_x_at) / Fold change /veh IGLL1 (11728026_x_at): dose or concentration left out as unconfirmed
Conditions: ProbeSet 11743286_at; LIST D

## Nc1ncn([C@@H]2O[C@H](CO)[C@@H](O)[C@H]2O)c(=O)n1 [azacitidine]
  Fold change vs veh, DTX4: 0.59
